According to patent US11987588B2, “Modulators of the beta-3 adrenergic receptor useful for the treatment or prevention of heart failure and disorders related thereto” (Arena Pharmaceuticals, Inc., priority 2017, dated 2024):
pIC50: −log10 of the molar value.

target: Beta-3 Adrenergic Receptor (Homo sapiens (Human), UniProt P13945); assay: Homogeneous Time-Resolved Fluorescence (HTRF) cAMP antagonist assay, IC50 determination; format: cell-based; conditions: CHO-K1 cells stably expressing recombinant receptor, isoproterenol at EC90
Sequence (P13945 whole entry, species assumed): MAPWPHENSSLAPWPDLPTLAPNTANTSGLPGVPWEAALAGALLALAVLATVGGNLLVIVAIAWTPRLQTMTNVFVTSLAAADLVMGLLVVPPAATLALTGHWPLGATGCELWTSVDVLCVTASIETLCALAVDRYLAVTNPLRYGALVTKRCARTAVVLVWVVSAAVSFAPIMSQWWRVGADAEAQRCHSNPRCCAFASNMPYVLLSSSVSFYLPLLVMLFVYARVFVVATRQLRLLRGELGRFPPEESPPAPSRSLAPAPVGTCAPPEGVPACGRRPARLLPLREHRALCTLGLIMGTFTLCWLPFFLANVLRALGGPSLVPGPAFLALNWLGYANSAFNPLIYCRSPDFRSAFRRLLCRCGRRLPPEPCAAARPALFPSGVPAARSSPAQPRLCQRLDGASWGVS
Outline: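 CHO-K1 cells stably expressing receptor, 1500 cells/well, preincubated briefly with 10-point 5-fold compound series (top final typically 10 or 100 μM) in PBS with 1 mM IBMX, then challenged with isoproterenol at EC90 for 1 h at room temperature. cAMP read by HTRF against on-plate standard curve; IC50 from dose-response.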

SMILES	pIC50
CCn1cc(S(=O)(=O)N2CCC3(CC2)C[C@@H](NC[C@H](O)COc2cccc(S(=O)(=O)NC)c2)CO3)c(=O)c2ccc(C)cc21 [Compound 531, 3-((S)-3-((R)-8-(1-ethyl-7-methyl-4-oxo-1,4-dihydroquinolin-3-ylsulfonyl)-1-oxa-8-azaspiro[4.5]decan-3-ylamino)-2-hydroxypropoxy)-N-methylbenzenesulfonamide]	7.30
O=S(=O)(NCCF)c1cccc(OC[C@@H](O)CN[C@H]2COC3(CCN(S(=O)(=O)c4cnc5ccccc5c4)CC3)C2)c1 [Compound 394, N-(2-fluoroethyl)-3-((S)-2-hydroxy-3-((R)-8-(quinolin-3-ylsulfonyl)-1-oxa-8-azaspiro[4.5]decan-3-ylamino)propoxy)benzenesulfonamide]	7.33
CNS(=O)(=O)c1cccc(OC[C@@H](O)CNC2COC3(CCN(S(=O)(=O)c4cccc(-c5ccc(CC(=O)O)cc5)c4)CC3)C2)c1 (stereo partly drawn) [Compound 87, 2-(3′-(3-((S)-2-hydroxy-3-(3-(N-methylsulfamoyl)phenoxy)propylamino)-1-oxa-8-azaspiro[4.5]decan-8-ylsulfonyl)biphenyl-4-yl)acetic acid]	7.18
CCn1cc(-c2cccc(S(=O)(=O)N3CCC4(CC3)C[C@H](NC[C@H](O)COc3cccc(S(=O)(=O)NC)c3)CO4)c2)cn1 [Compound 282, 3-((S)-3-((S)-8-(3-(1-ethyl-1H-pyrazol-4-yl)phenylsulfonyl)-1-oxa-8-azaspiro[4.5]decan-3-ylamino)-2-hydroxypropoxy)-N-methylbenzenesulfonamide]	7.81
CNS(=O)(=O)c1cccc(OC[C@@H](O)CN[C@@H]2COC3(CCN(S(=O)(=O)c4cc(OC)cc(-c5ccc(CN)cc5)c4)CC3)C2)c1 [Compound 449, 3-((S)-3-((S)-8-(4′-(aminomethyl)-5-methoxybiphenyl-3-ylsulfonyl)-1-oxa-8-azaspiro[4.5]decan-3-ylamino)-2-hydroxypropoxy)-N-methylbenzenesulfonamide]	7.91
CNS(=O)(=O)c1cccc(OC[C@@H](O)CN[C@H]2COC3(CCN(S(=O)(=O)c4cccc(-c5ccc(CNC(C)C)cc5)c4)CC3)C2)c1 [Compound 362, 3-((S)-2-hydroxy-3-((R)-8-(4′-((isopropylamino)methyl)biphenyl-3-ylsulfonyl)-1-oxa-8-azaspiro[4.5]decan-3-ylamino)propoxy)-N-methylbenzenesulfonamide]	7.56
CCNS(=O)(=O)c1cccc(OC[C@@H](O)CNC2COC3(CCN(S(=O)(=O)c4cc(C)ccc4F)CC3)C2)c1 (stereo partly drawn) [Compound 226, N-ethyl-3-((2S)-3-(8-(2-fluoro-5-methylphenylsulfonyl)-1-oxa-8-azaspiro[4.5]decan-3-ylamino)-2-hydroxypropoxy)benzenesulfonamide]	6.81
CNS(=O)(=O)c1cccc(OC[C@@H](O)CNC2COC3(CCN(S(=O)(=O)c4cccc(-c5ccc(CNCCC(C)C)cc5)c4)CC3)C2)c1 (stereo partly drawn) [Compound 320, 3-((2S)-2-hydroxy-3-(8-(4′-((isopentylamino)methyl)biphenyl-3-ylsulfonyl)-1-oxa-8-azaspiro[4.5]decan-3-ylamino)propoxy)-N-methylbenzenesulfonamide]	7.58
CNS(=O)(=O)c1cccc(OC[C@@H](O)CN[C@H]2COC3(CCN(S(=O)(=O)c4cnc5c(c4)CCC5)CC3)C2)c1 [Compound 491, 3-((S)-3-((R)-8-(6,7-dihydro-5H-cyclopenta[b]pyridin-3-ylsulfonyl)-1-oxa-8-azaspiro[4.5]decan-3-ylamino)-2-hydroxypropoxy)-N-methylbenzenesulfonamide]	7.61
CNc1nc2c(cc1S(=O)(=O)N1CCC3(CC1)C[C@@H](NC[C@H](O)COc1cccc(S(=O)(=O)NC)c1)CO3)N(C)CCO2 [Compound 452, 3-((S)-2-hydroxy-3-((R)-8-(1-methyl-6-(methylamino)-2,3-dihydro-1H-pyrido[2,3-b][1,4]oxazin-7-ylsulfonyl)-1-oxa-8-azaspiro[4.5]decan-3-ylamino)propoxy)-N-methylbenzenesulfonamide]	7.59
CNS(=O)(=O)c1cccc(OC[C@@H](O)CNC2COC3(CCN(S(=O)(=O)c4ccc(C#N)cc4)CC3)C2)c1 (stereo partly drawn) [Compound 44, 3-((2S)-3-(8-(4-cyanophenylsulfonyl)-1-oxa-8-azaspiro[4.5]decan-3-ylamino)-2-hydroxypropoxy)-N-methylbenzenesulfonamide]	7.47
CNS(=O)(=O)c1cccc(OC[C@@H](O)CNC2COC3(CCN(S(=O)(=O)c4cccc(-c5ccc(CC#N)cc5)c4)CC3)C2)c1 (stereo partly drawn) [Compound 117, 3-((2S)-3-(8-(4′-(cyanomethyl)biphenyl-3-ylsulfonyl)-1-oxa-8-azaspiro[4.5]decan-3-ylamino)-2-hydroxypropoxy)-N-methylbenzenesulfonamide]	7.84
CNS(=O)(=O)c1cccc(OC[C@@H](O)CN[C@H]2COC3(CCN(c4nc(C)cc(C)n4)CC3)C2)c1 [Compound 577, 3-((S)-3-((R)-8-(4,6-dimethylpyrimidin-2-yl)-1-oxa-8-azaspiro[4.5]decan-3-ylamino)-2-hydroxypropoxy)-N-methylbenzenesulfonamide]	6.99
CNS(=O)(=O)c1cccc(OC[C@@H](O)CNC2COC3(CCN(S(=O)(=O)c4c(C)ccc5nonc45)CC3)C2)c1 (stereo partly drawn) [Compound 175, 3-((2S)-2-hydroxy-3-(8-(5-methylbenzo[c][1,2,5]oxadiazol-4-ylsulfonyl)-1-oxa-8-azaspiro[4.5]decan-3-ylamino)propoxy)-N-methylbenzenesulfonamide]	7.62
CNS(=O)(=O)c1cccc(OC[C@@H](O)CN[C@H]2COC3(CCN(S(=O)(=O)c4cnc5nc[nH]c5c4)CC3)C2)c1 [Compound 495, 3-((S)-3-((R)-8-(1H-imidazo[4,5-b]pyridin-6-ylsulfonyl)-1-oxa-8-azaspiro[4.5]decan-3-ylamino)-2-hydroxypropoxy)-N-methylbenzenesulfonamide]	7.30
CCOc1nc2c(cc1S(=O)(=O)N1CCC3(CC1)CC(NC[C@H](O)COc1cccc(S(=O)(=O)NC)c1)CO3)N(C)CCO2 (stereo partly drawn) [Compound 401, 3-((2S)-3-(8-(6-ethoxy-1-methyl-2,3-dihydro-1H-pyrido[2,3-b][1,4]oxazin-7-ylsulfonyl)-1-oxa-8-azaspiro[4.5]decan-3-ylamino)-2-hydroxypropoxy)-N-methylbenzenesulfonamide]	7.60
C[C@@H](NS(=O)(=O)c1cccc(OC[C@@H](O)CNC2COC3(CCN(S(=O)(=O)c4ccc5ccccc5c4)CC3)C2)c1)C1CC1 (stereo partly drawn) [Compound 93, N—((R)-1-cyclopropylethyl)-3-((2S)-2-hydroxy-3-(8-(naphthalen-2-ylsulfonyl)-1-oxa-8-azaspiro[4.5]decan-3-ylamino)propoxy)benzenesulfonamide]	6.95
CCn1cc(-c2cccc(S(=O)(=O)N3CCC4(CC3)CC(NC[C@H](O)COc3cccc(S(=O)(=O)NC)c3)CO4)c2)cn1 (stereo partly drawn) [Compound 69, 3-((2S)-3-(8-(3-(1-ethyl-1H-pyrazol-4-yl)phenylsulfonyl)-1-oxa-8-azaspiro[4.5]decan-3-ylamino)-2-hydroxypropoxy)-N-methylbenzenesulfonamide]	7.68

Continued, values first:

pIC50	SMILES
7.62	CNS(=O)(=O)c1cccc(OC[C@@H](O)CNC2COC3(CCN(S(=O)(=O)c4ccccc4F)CC3)C2)c1 (stereo partly drawn) [Compound 34, 3-((2S)-3-(8-(2-fluorophenylsulfonyl)-1-oxa-8-azaspiro[4.5]decan-3-ylamino)-2-hydroxypropoxy)-N-methylbenzenesulfonamide]
7.85	CNS(=O)(=O)c1cccc(OC[C@@H](O)CNC2COC3(CCN(S(=O)(=O)c4ccc(Br)cc4)CC3)C2)c1 (stereo partly drawn) [Compound 52, 3-((2S)-3-(8-(4-bromophenylsulfonyl)-1-oxa-8-azaspiro[4.5]decan-3-ylamino)-2-hydroxypropoxy)-N-methylbenzenesulfonamide]
7.47	CNS(=O)(=O)c1cccc(OC[C@@H](O)CNC2COC3(CCN(S(=O)(=O)c4ccc(F)cc4)CC3)C2)c1 (stereo partly drawn) [Compound 26, 3-((2S)-3-(8-(4-fluorophenylsulfonyl)-1-oxa-8-azaspiro[4.5]decan-3-ylamino)-2-hydroxypropoxy)-N-methylbenzenesulfonamide]
7.37	CNS(=O)(=O)c1cccc(OC[C@@H](O)CN[C@H]2COC3(CCN(S(=O)(=O)c4ccc5ncccc5c4)CC3)C2)c1 [Compound 344, 3-((S)-2-hydroxy-3-((R)-8-(quinolin-6-ylsulfonyl)-1-oxa-8-azaspiro[4.5]decan-3-ylamino)propoxy)-N-methylbenzenesulfonamide]
7.40	CNS(=O)(=O)c1cccc(OC[C@@H](O)CNC2COC3(CCN(S(=O)(=O)c4ccsc4)CC3)C2)c1 (stereo partly drawn) [Compound 196, 3-((2S)-2-hydroxy-3-(8-(thiophen-3-ylsulfonyl)-1-oxa-8-azaspiro[4.5]decan-3-ylamino)propoxy)-N-methylbenzenesulfonamide]
7.51	CNS(=O)(=O)c1cccc(OC[C@@H](O)CNC2COC3(CCN(S(=O)(=O)c4ccccc4OC(F)(F)F)CC3)C2)c1 (stereo partly drawn) [Compound 171, 3-((2S)-2-hydroxy-3-(8-(2-(trifluoromethoxy)phenylsulfonyl)-1-oxa-8-azaspiro[4.5]decan-3-ylamino)propoxy)-N-methylbenzenesulfonamide]
7.93	CNS(=O)(=O)c1cccc(OC[C@@H](O)CNC2COC3(CCN(S(=O)(=O)c4cc5ccccc5o4)CC3)C2)c1 (stereo partly drawn) [Compound 326, 3-((2S)-3-(8-(benzofuran-2-ylsulfonyl)-1-oxa-8-azaspiro[4.5]decan-3-ylamino)-2-hydroxypropoxy)-N-methylbenzenesulfonamide]
7.56	CNS(=O)(=O)c1cccc(OC[C@@H](O)CNC2COC3(CCN(S(=O)(=O)c4cc(OC)ccc4F)CC3)C2)c1 (stereo partly drawn) [Compound 241, 3-((2S)-3-(8-(2-fluoro-5-methoxyphenylsulfonyl)-1-oxa-8-azaspiro[4.5]decan-3-ylamino)-2-hydroxypropoxy)-N-methylbenzenesulfonamide]
